Data as given in US9663530B2, “5-oxa-2-azabicyclo[2.2.2]OCTAN-4-yl and 5-oxa-2-azabicyclo[2.2.1]heptan-4-yl derivatives” (Hoffmann-La Roche Inc., priority 2014, dated 2017).

Key:
[1] = biological target: mouse TAAR1 (Mus musculus (Mouse), UniProt Q923Y8); assay: Radioligand binding assay on mouse TAAR1; settings: mouse TAAR1 (first value of the cell); membranes of HEK-293 cells stably expressing mouse TAAR1; read-out: Ki (μM) mouse/rat
Protocol: (§1) Construction of TAAR Expression Plasmids and Stably Transfected Cell Lines
(§2) For the construction of expression plasmids the coding sequences of human, rat and mouse TAAR 1 were amplified from genomic DNA essentially as described by Lindemann et al.. The Expand High Fidelity PCR System (Roche Diagnostics) was used with 1.5 mM Mg^2+ and purified PCR products were cloned into pCR2.1-TOPO cloning vector (Invitrogen) following the instructions of the manufacturer. PCR products were subcloned into the pIRESneo2 vector (BD Clontech, Palo Alto, Calif.), and expression vectors were sequence verified before introduction in cell lines.
(§3) HEK293 cells (ATCC # CRL-1573) were cultured essentially as described by Lindemann et al. (2005). For the generation of stably transfected cell lines HEK293 cells were transfected with the pIRESneo2 expression plasmids containing the TAAR coding sequences (described above) with Lipofectamine 2000 (Invitrogen) according to the instructions of the manufacturer, and 24 hrs post transfection the culture medium was supplemented with 1 mg/ml G418 (Sigma, Buchs, Switzerland). After a culture period of about 10 d clones were isolated, expanded and tested for responsiveness to trace amines (all compounds purchased from Sigma) with the cAMP Biotrak Enzyme immunoassay (EIA) System (Amersham) following the non-acetylation EIA procedure provided by the manufacturer.
Radioligand Binding Assay on Mouse TAAR1
(§4) Membrane Preparation and Radioligand Binding.
HEK-293 cells stably expressing mouse TAAR1 were maintained at 37° C. and 5% CO2 in DMEM high glucose medium, containing fetal calf serum (10%, heat inactivated for 30 min at 56° C.), penicillin/streptomycin (1%), and 375 μg/ml geneticin (Gibco). Cells were released from culture flasks using trypsin/EDTA, harvested, washed twice with ice-cold PBS (without Ca^2+and Mg^2+), pelleted at 1,000 rpm for 5 min at 4° C., frozen and stored at −80° C. Frozen pellets were suspended in 20 ml HEPES-NaOH (20 mM, pH 7.4) containing 10 mM EDTA and homogenized with a Polytron (PT 6000, Kinematica) at 14,000 rpm for 20 s. The homogenate was centrifuged at 48,000×g for 30 min at 4° C. Subsequently, the supernatant was removed and discarded, and the pellet resuspended in 20 ml HEPES-NaOH (20 mM, pH 7.4) containing 0.1 mM EDTA using the Polytron (20 s at 14,000 rpm). This procedure was repeated and the final pellet resuspended in HEPES-NaOH containing 0.1 mM EDTA and homogenized using the Polytron. Typically, aliquots of 2 ml membrane portions were stored at −80° C. With each new membrane batch the dissociation constant (Kd) was determined via a saturation curve. The TAAR1 radioligand ^3[H]-(S)-4-[(ethyl-phenyl-amino)-methyl]-4,5-dihydro-oxazol-2-ylamine (described in WO 2008/098857) was used at a concentration equal to the calculated Kd value, that was usually around 0.7 nM, resulting in the binding of approximately 0.5% of the radioligand and a specific binding representing approximately 70% of the total binding. Nonspecific binding was defined as the amount of ^3[H]-(S)-4-[(ethyl-phenyl-amino)-methyl]-4,5-dihydro-oxazol-2-ylamine bound in the presence of 10 μM unlabeled ligand. All compounds were tested at a broad range of concentrations ([…]) in duplicates. The test compounds (20 […]μl/well) were transferred into a 96 deep well plate (TreffLab), and 180 μl of HEPES-NaOH (20 mM, pH 7.4) containing MgCl2 (10 mM) and CaCl2 (2 mM) (binding buffer), 300 μl of the radioligand ^3[H]-(S)-4-[(ethyl-phenyl-amino)-methyl]-4,5-dihydro-oxazol-2-ylamine at a concentration of 3.3×Kd in nM and 500 μl of the membranes (resuspended at […]) added. The 96 deep well plates were incubated for 1 hr at 4° C. Incubations were terminated by rapid filtration through Unifilter-96 plates (Packard Instrument Company) and glass filters GF/C (Perkin Elmer) presoaked for 1 hr in polyethylenimine (0.3%) and washed 3 times with 1 ml of cold binding buffer. […]

[2] = biological target: rat TAAR1 (Rattus norvegicus (Rat), UniProt Q923Y9); assay: Radioligand binding assay on rat TAAR1; settings: rat TAAR1 (second value of the cell); membranes of HEK-293 cells stably expressing rat TAAR1; read-out: Ki (μM) mouse/rat
rat TAAR1, sequence (Q923Y9 whole entry): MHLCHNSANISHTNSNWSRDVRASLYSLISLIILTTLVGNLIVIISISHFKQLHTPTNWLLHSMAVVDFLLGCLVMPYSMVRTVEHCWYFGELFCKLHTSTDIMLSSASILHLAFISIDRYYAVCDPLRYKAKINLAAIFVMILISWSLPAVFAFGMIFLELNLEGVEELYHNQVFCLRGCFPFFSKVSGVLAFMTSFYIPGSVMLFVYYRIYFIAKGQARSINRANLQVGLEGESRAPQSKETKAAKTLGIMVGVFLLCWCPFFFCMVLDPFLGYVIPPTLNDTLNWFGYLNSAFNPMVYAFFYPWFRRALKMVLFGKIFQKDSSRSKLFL
Protocol: as §1, §2, §3
Radioligand Binding Assay on Rat TAAR1
as §4
HEK-293 cells stably expressing rat TAAR1 were maintained at 37° C. and 5% CO2 in DMEM high glucose medium, containing fetal calf serum (10%, heat inactivated for 30 min at 56° C.), penicillin/streptomycin (1%), and 375 μg/ml geneticin (Gibco). Cells were released from culture flasks using trypsin/EDTA, harvested, washed twice with ice-cold PBS (without Ca^2+ and Mg^2+), pelleted at 1,000 rpm for 5 min at 4° C., frozen and stored at −80° C. Frozen pellets were suspended in 20 ml HEPES-NaOH (20 mM, pH 7.4) containing 10 mM EDTA and homogenized with a Polytron (PT 6000, Kinematica) at 14,000 rpm for 20 s. The homogenate was centrifuged at 48,000×g for 30 min at 4° C. Subsequently, the supernatant was removed and discarded, and the pellet resuspended in 20 ml HEPES-NaOH (20 mM, pH 7.4) containing 0.1 mM EDTA using the Polytron (20 s at 14,000 rpm). This procedure was repeated and the final pellet resuspended in HEPES-NaOH containing 0.1 mM EDTA and homogenized using the Polytron. Typically, aliquots of 2 ml membrane portions were stored at −80° C. With each new membrane batch the dissociation constant (Kd) was determined via a saturation curve. […] Nonspecific binding was defined as the amount of ^3[H]-(S)-4-[(ethyl-phenyl-amino)-methyl]-4,5-dihydro-oxazol-2-ylamine bound in the presence of 10 μM unlabeled ligand. All compounds were tested at a broad range of concentrations ([…]) in duplicates. The test compounds (20 […]μl/well) were transferred into a 96 deep well plate (TreffLab), and 180 μl of HEPES-NaOH (20 mM, pH 7.4) containing MgCl2 (10 mM) and CaCl2 (2 mM) (binding buffer), 300 μl of the radioligand ^3[H]-(S)-4-[(ethyl-phenyl-amino)-methyl]-4,5-dihydro-oxazol-2-ylamine at a concentration of 3.3×Kd in nM and 500 μl of the membranes (resuspended at 50 μg protein per ml) added. The 96 deep well plates were incubated for 1 hr at 4° C. Incubations were terminated by rapid filtration through Unifilter-96 plates (Packard Instrument Company) and glass filters GF/C (Perkin Elmer) presoaked for 1 hr in polyethylenimine (0.3%) and washed 3 times with 1 ml of cold binding buffer. After addition of 45 μl of Microscint 40 (PerkinElmer) the Unifilter-96 plate was sealed and after 1 hr the ratioactivity counted using a TopCount Microplate Scintillation Counter (Packard Instrument Company).

mouse TAAR1, sequence (Q923Y8 whole entry): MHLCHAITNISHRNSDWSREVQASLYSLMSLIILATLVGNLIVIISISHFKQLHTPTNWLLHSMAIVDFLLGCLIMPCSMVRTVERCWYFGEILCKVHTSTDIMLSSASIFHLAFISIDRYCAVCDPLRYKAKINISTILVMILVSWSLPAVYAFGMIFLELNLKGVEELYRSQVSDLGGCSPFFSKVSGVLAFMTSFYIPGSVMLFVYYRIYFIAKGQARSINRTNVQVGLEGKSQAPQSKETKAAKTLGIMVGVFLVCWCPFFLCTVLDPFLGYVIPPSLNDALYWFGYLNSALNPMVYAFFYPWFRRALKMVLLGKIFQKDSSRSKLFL

SMILES	Ki [1]	Ki [2]
Clc1ccc(Nc2ccc(C34CCC(CO3)NC4)cc2)nc1 (racemic) [Example 3, (RS)-5-Chloro-N-[4-(5-oxa-2-azabicyclo[2.2.2]octan-4-yl)phenyl]pyridin-2-amine]	0.0141 µM	2.46 µM
FC(F)(F)c1ccc(Nc2ccc(C34CCC(CO3)NC4)cc2)nc1 (racemic) [Example 4, (RS)—N-[4-(5-Oxa-2-azabicyclo[2.2.2]octan-4-yl)phenyl]-5-(trifluoromethyl)pyridin-2-amine]	0.0111 µM	0.328 µM
O=C(Nc1ccc(C23CCC(CO2)NC3)cc1)c1ccc(Cl)cc1 (racemic) [Example 5, (RS)-4-Chloro-N-[4-(5-oxa-2-azabicyclo[2.2.2]octan-4-yl)phenyl]benzamide]	0.0028 µM	0.662 µM
O=C(Nc1ccc(C23CCC(CO2)NC3)cc1)c1ccc(OCC2CC2)cc1 (racemic) [Example 11, (RS)-4-(Cyclopropylmethoxy)-N-[4-(5-oxa-2-azabicyclo[2.2.2]octan-4-yl)phenyl]benzamide]	0.019 µM	1.22 µM
CCOc1ccc(C(=O)Nc2ccc(C34CCC(CO3)NC4)cc2)cn1 (racemic) [Example 12, (RS)-6-Ethoxy-N-[4-(5-oxa-2-azabicyclo[2.2.2]octan-4-yl)phenyl]pyridine-3-carboxamide]	0.0219 µM	7.06 µM
O=C(Nc1ccc(C23CCC(CO2)NC3)cc1)c1ccc(OCC(F)(F)F)nc1 (racemic) [Example 13, (RS)—N-[4-(5-Oxa-2-azabicyclo[2.2.2]octan-4-yl)phenyl]-6-(2,2,2-trifluoroethoxy)pyridine-3-carboxamide]	0.0304 µM	0.624 µM
O=C(Nc1ccc(C23CCC(CO2)NC3)cc1)c1cnc(C2CC2)nc1 (racemic) [Example 14, (RS)-2-Cyclopropyl-N-[4-(5-oxa-2-azabicyclo[2.2.2]octan-4-yl)phenyl]pyrimidine-5-carboxamide]	0.136 µM	> 10 µM
CCCc1n[nH]c(C(=O)Nc2ccc(C34CCC(CO3)NC4)cc2)c1Cl (racemic) [Example 34, (RS)-4-Chloro-N-[4-(5-oxa-2-azabicyclo[2.2.2]octan-4-yl)phenyl]-3-propyl-1H-pyrazole-5-carboxamide]	0.0135 µM	0.0973 µM
CCc1ncc(C(=O)Nc2ccc(C34CCC(CO3)NC4)cc2)cn1 (racemic) [Example 35, (RS)-2-Ethyl-N-[4-(5-oxa-2-azabicyclo[2.2.2]octan-4-yl)phenyl]pyrimidine-5-carboxamide]	0.153 µM	10 µM
O=C(Nc1ccc(C23CCC(CO2)NC3)cc1)c1ccnc(C(F)(F)F)c1 (racemic) [Example 37, (RS)—N-[4-(5-Oxa-2-azabicyclo[2.2.2]octan-4-yl)phenyl]-2-(trifluoromethyl)pyridine-4-carboxamide]	0.0377 µM	1.44 µM
FC(F)(F)c1cnc(Nc2ccc(C34CCC(CO3)NC4)cc2)cn1 (racemic) [Example 64, (RS)—N-[4-(5-Oxa-2-azabicyclo[2.2.2]octan-4-yl)phenyl]-5-(trifluoromethyl)pyrazin-2-amine]	0.03 µM	7.68 µM
FC(F)(F)c1cnc(Nc2ccc(C34CCC(CO3)NC4)cc2)nc1 (racemic) [Example 65, (RS)—N-[4-(5-Oxa-2-azabicyclo[2.2.2]octan-4-yl)phenyl]-5-(trifluoromethyl)pyrimidin-2-amine]	0.122 µM	3.84 µM
O=C(Nc1ccc(Cl)cc1)Nc1ccc(C23CCC(CO2)NC3)cc1 (racemic) [Example 66, (RS)-1-(4-Chlorophenyl)-3-[4-(5-oxa-2-azabicyclo[2.2.2]octan-4-yl)phenyl]urea]	0.005 µM	0.0465 µM
O=C(Nc1ccc(C(F)(F)F)cc1)Nc1ccc(C23CCC(CO2)NC3)cc1 (racemic) [Example 67, (RS)-1-[4-(5-Oxa-2-azabicyclo[2.2.2]octan-4-yl)phenyl]-3-[4-(trifluoromethyl)phenyl]urea]	0.0137 µM	0.0263 µM
O=C(Nc1ccc(C23CCC(CO2)NC3)cc1)Nc1cccc(Cl)c1 (racemic) [Example 68, (RS)-1-(3-Chlorophenyl)-3-[4-(5-oxa-2-azabicyclo[2.2.2]octan-4-yl)phenyl]urea]	0.0119 µM	0.0681 µM
O=C(Nc1ccc(Cl)cc1)Nc1ccc(C[C@]23CN[C@H](CO2)C3)cc1 [Example 1, 1-(4-Chlorophenyl)-3-[4-[[(1S,4S)-5-oxa-2-azabicyclo[2.2.1]heptan-4-yl]methyl]phenyl]urea]	1.82 µM	1150 µM
O=C(Nc1ccc(C[C@]23CN[C@H](CO2)C3)cc1)Nc1cccc(Cl)c1 [Example 2, 1-(3-Chlorophenyl)-3-[4-[[(1S,4S)-5-oxa-2-azabicyclo[2.2.1]heptan-4-yl]methyl]phenyl]urea]	1.35 µM	0.0822 µM
O=C(Nc1ccc(C23CCC(CO2)NC3)cc1)c1cccc(Cl)c1 (centres unmarked) [Example 6, 3-Chloro-N-[4-(5-oxa-2-azabicyclo[2.2.2]octan-4-yl)phenyl]benzamide]	0.0044 µM	0.797 µM
Clc1ccc(Nc2ccc([C@]34CN[C@H](CO3)C4)cc2)nc1 [Example 7, 5-Chloro-N-[4-[(1S,4R)-5-oxa-2-azabicyclo[2.2.1]heptan-4-yl]phenyl]pyridin-2-amine]	0.0414 µM	0.309 µM
